Data: patent US20150335579A1, “MULTILAYER TABLET CONTAINING TELMISARTAN AND HYDROCHLOROTHIAZIDE” (Sawai Pharmaceutical Co., Ltd., priority 2013, published 2015)

Test: Moisture absorbency of telmisartan and telmisartan meglumine salt
Type: physicochemical
Excerpt: As mentioned above, it is known that the hydrolysis of hydrochlorothiazide is promoted by temperature and humidity.

moisture absorbency relative to telmisartan itself	moisture absorbency (result in words)	Compound
about 10 times	–	CCCc1nc2c(C)cc(-c3nc4ccccc4n3C)cc2n1Cc1ccc(-c2ccccc2C(=O)O)cc1.CNCC(O)C(O)C(O)C(O)CO [telmisartan meglumine salt]
–	relatively low	CCCc1nc2c(C)cc(-c3nc4ccccc4n3C)cc2n1Cc1ccc(-c2ccccc2C(=O)O)cc1 [telmisartan]
